22 compounds from PubChem BioAssay (NCI) can be followed below.

Holding throughout (experiment): NCI tumour cell line growth inhibition, 48 h
The test system of assay [1] is SR leukemia.
Assay [2] has as its system NCI-H23 lung.
Assay [3] has as its system LOX IMVI melanoma.
The test system of assay [4] is PC-3 prostate.
Assay [5] concerns A498 renal.
Assay [6] relates to NCI-H522 lung.
Assay [7] concerns MOLT-4 leukemia.
For assay [8], the system named is UACC-62 melanoma.
In assay [9] the test system is SN12C renal.
Assay [10] has as its system TK-10 renal.
Assay [11] concerns SNB-19 CNS.
Assay [12] concerns SK-OV-3 ovarian.
The test system of assay [13] is OVCAR-3 ovarian.

The structures appear in SMILES notation. Several values for one entry are separate records, joined by “and”; a condition that tells them apart may be missing. Equal entries are not always repeated.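 Where inhibition never reached the appropriate level, the endpoint shown equals the highest concentration tested. Otherwise, values were interpolated linearly from a five-concentration, 48-hour dose response in 96-well plates. The concentration for 50% growth inhibition is given as GI50. TGI: total growth inhibition.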 Where a SMILES comes first, the peptide text is derived from it. The star is where a group is joined. Boc = CC(C)(C)OC(=O)*; nBu = CCCC*

`C[C@@H]1CC[C@@H]2[C@@H](C1)O[C@@H]([C@@H](C)OCc1ccccc1)SC2(C)C`: the TGI in assay [1] worked out at 34.9 µM; in assay [2], 51.5 µM; in assay [3] it was 41.9 µM; in [4], 45.4 µM; in assay [5], 32 µM; in [6] it was 31.1 µM. For the same compound, the TGI in assay [7] worked out at 32.3 µM; in assay [8] it was 43.2 µM; in assay [9] it was 32.3 µM; in assay [10] it was 55.4 µM; in assay [11], 33.6 µM; in [12], 59.9 µM.

Turning to `C#C[C@]1(O)CC[C@H]2[C@@H]3CCc4cc(O)ccc4[C@H]3CC[C@@]21C`, the TGI is more than 100 µM in assay [1]; 69.4 µM in assay [2]; more than 100 µM in assay [3]; more than 100 µM in assay [13]; 77.4 µM in [5]; 43.5 µM in assay [6]. Moreover, the TGI in assay [7] is more than 100 µM; in assay [8], more than 100 µM; in assay [9], more than 100 µM; in assay [10] it was more than 100 µM; in assay [11], more than 100 µM; in assay [12], 79.7 µM.

For the compound `CC(C)CC(N)C(=O)NC(C(=O)NC(CCCNC(=N)N)C(=O)NC(CS)C(=O)NC1CSCC(C(=O)NC(Cc2ccccc2)C(=O)NC(C(=O)NC(CCCNC(=N)N)C(=O)O)C(C)C)NC(=O)C2CCCN2C(=O)C(CCCCN)NC(=O)C2CCCN2C(=O)C2CCCN2C(=O)C(Cc2ccc(O)cc2)NC(=O)C(CO)NC(=O)C(CCCCN)NC(=O)C(C(C)O)NC(=O)C(Cc2c[nH]c3ccccc23)NC1=O)C(C)C` (centres undefined), the TGI in assay [1], in assay [2], in [3], in [13], in assay [4] and in assay [5] was more than 25 µM each time. Besides, the TGI in [6], in assay [7], in [8], in assay [9], in assay [10] and in assay [11] was more than 25 µM in each case. Moreover, the TGI in assay [12] was more than 25 µM.

On to `CC(Oc1ccc(Cl)cc1Cl)C(=O)NN1C(=O)CC(=O)N(c2ccccc2)C1=S` (centres undefined), for which the TGI in assay [1] was 22.4 µM; in assay [2], more than 100 µM; in [3], more than 100 µM; in assay [13], more than 100 µM; in assay [4] it was more than 100 µM; in [5], 95.1 µM. Moreover, the TGI in [6], in assay [7], in [8], in assay [9], in assay [10] and in assay [11] was more than 100 µM each time. Moreover, the TGI in [12] is more than 100 µM.

Take `COc1ccc(CCn2cncn2)cc1`: the TGI in [1], in assay [2], in [13], in [6], in assay [7] and in assay [8] was more than 100 µM in each case. Moreover, the TGI in [9], in assay [10], in assay [11] and in [12] was more than 100 µM each time.

As to `COc1ccccc1-c1c(C#N)c(N)[nH]c(=S)c1C#N`, the TGI in assay [1], in assay [2], in assay [3], in assay [13], in assay [4] and in assay [5] was more than 100 µM each time. Moreover, the TGI in assay [6] was more than 100 µM; in [7], more than 100 µM; in assay [8], more than 100 µM; in assay [9] it was 91.8 µM; in [10], more than 100 µM; in assay [11] it was more than 100 µM.

For `Nc1nc(SCC(=O)c2ccc(Br)cc2)c2[nH]cnc2n1`, the TGI in assay [1], in assay [2], in assay [3], in assay [13], in assay [4] and in assay [5] was more than 100 µM in each case. The TGI in assay [6] was 86.5 µM; in [8] it was more than 100 µM; in assay [9] it was more than 100 µM; in assay [10] it was 56.8 µM; in [11] it was more than 100 µM; in assay [12], more than 100 µM.

As to `CCOc1nc2c(N3CCCC3)nc(N3CCNCC3)nc2nc1NCc1ccccc1`, the TGI in assay [1] was 3.12 µM; in assay [2] it was 3.45 µM; in assay [3], 2.97 µM; in assay [13], 2.32 µM; in assay [4] it was 3.63 µM; in assay [6], 2.2 µM. Besides, the TGI in [7] was 2.8 µM; in assay [8] it was 3.25 µM; in [9], 2.96 µM; in assay [10], 5.58 µM; in [11] it was 3.45 µM; in assay [12] it was 3.26 µM.

For the compound `CCCCOc1ccc(CC(NC(=O)OC(C)(C)C)C(=O)NC(C)C(=O)NC(Cc2ccccc2)C(=O)NCC(N)=O)cc1` (centres undefined) (Boc-Y(nBu)AFG-NH2; configuration not given here), the TGI in [2], in [3], in assay [13], in assay [4], in [5] and in assay [6] was more than 100 µM each time. In addition, the TGI in assay [7] was 53.3 µM; in assay [8] it was more than 100 µM; in [9], more than 100 µM; in assay [10], more than 100 µM; in assay [11], more than 100 µM; in assay [12] it was more than 100 µM.

With `O=c1c2cc(O)ccc2n2nnc3ccc(NCCNCCO)c1c32`, the TGI is 14.7 µM and 4.29 µM in [1]; 42.3 µM and 20.2 µM in assay [2]; 13.4 µM and 10.2 µM in assay [3]; > 86 µM and 16.3 µM in assay [13]; > 87.4 µM and 16.7 µM in assay [5]; 2.33 µM and 4.8 µM in assay [6]. The TGI in assay [8] was 19.4 µM and 13.3 µM; in [9], 51.9 µM and 18.4 µM; in [10], > 50 µM and 60.8 µM; in [11], 39.4 µM and 29.1 µM; in assay [12] it was > 100 µM and 37 µM. For the same compound, the GI50 in assay [13] is 14.8 µM and 3.75 µM; in assay [5], 25.1 µM and 6.77 µM; in [6], 582 nM and 1470 nM; in assay [7], 1830 nM and 205 nM; in [8], 6.87 µM and 3.14 µM; in assay [9] it was 5.78 µM and 2.85 µM. In assay [10], the GI50 is 3.75 µM and 9.62 µM.

`CCc1n[nH]c(=O)n1/N=C(\C)c1ccccc1`: the TGI in assay [2], in [3], in [13], in assay [4], in [5] and in assay [6] was more than 100 µM throughout. In addition, the TGI in assay [7], in assay [8], in assay [9], in assay [10] and in [11] was more than 100 µM each time.

For `COc1cc(C2S/C(=C/c3ccccc3)C(=O)N2c2cccc(NC(C)=O)c2)cc(OC)c1OC` (centres undefined), the TGI in [1] is more than 100 µM; in assay [2], more than 100 µM; in assay [3] it was 54.7 µM; in assay [4] it was 48.9 µM; in [5] it was 93.7 µM; in [6], 47.1 µM. The TGI in assay [7], in assay [8], in [9], in [10], in assay [11] and in assay [12] was more than 100 µM each time.

Take `O=C(Nc1ccccc1)Oc1ccc(C(=S)Nc2ccc(Br)cc2)cc1`: the TGI in [1] was 50.8 µM; in [2] it was 37.2 µM; in assay [3] it was 24.8 µM; in [13], 52.8 µM; in [4] it was 89.8 µM; in assay [5], 54.5 µM. The TGI in [6] was 29.5 µM; in assay [7] it was 66.2 µM; in assay [8], 30 µM; in assay [12], more than 100 µM.

For `CC(=O)c1ccc(Nc2c3ccccc3nc3occc23)cc1`, the TGI was 18.5 µM in assay [1]; 17.1 µM in [2]; more than 100 µM in assay [3]; more than 100 µM in [4]; 12.6 µM in assay [5]; less than 0.01 µM in [6]. Besides, the TGI in [7] is 32.2 µM; in [8], 10.7 µM; in assay [9] it was 56.4 µM; in assay [10], 15.7 µM; in [11] it was more than 100 µM; in assay [12], 13.2 µM.

In the case of `N#C/C(=C(/O)CCl)c1nc2ccccc2o1`, the TGI in assay [1] worked out at 15 µM; in [2] it was 25.4 µM; in assay [3], 4.15 µM; in assay [13], 20.3 µM; in assay [4], 22.8 µM; in assay [5] it was 4.4 µM. Moreover, the TGI was 10.3 µM in [7]; 6.27 µM in assay [8]; 9.33 µM in assay [9]; more than 100 µM in assay [10]; more than 100 µM in assay [11]; 24.7 µM in assay [12].

As to `O=P(NCCCO)(OCc1ccccc1)N(CCCl)CCCl` (centres undefined), the TGI in [2], in assay [3], in assay [13], in [5], in [6] and in [7] was more than 100 µM throughout. Further, the TGI in assay [8], in assay [9], in assay [11] and in assay [12] was more than 100 µM throughout.

For `CN(CCc1ccccn1)c1ccc2c(c1)C(=O)c1ccccc1-2`, the TGI in assay [2], in assay [3], in assay [13], in assay [4], in [5] and in assay [6] was more than 100 µM throughout. The TGI in [8], in assay [9], in [10], in assay [11] and in assay [12] was more than 100 µM each time.

With `COc1ccc(N2C(=O)C(=O)C3(CCCCC3)C2=O)c2ccccc12`, the TGI in [1], in [2], in assay [3], in assay [4], in assay [5] and in assay [6] was more than 10 µM throughout. For the same compound, the TGI in assay [7], in [8], in assay [9], in assay [10], in [11] and in assay [12] was more than 10 µM throughout.

Turning to `COC(=O)c1c(O)ccc2c1c1cc3ccccc3c(O)c1n2CCc1ccc(OC)c(OC)c1`, the TGI in [1], in assay [2], in [13], in assay [4], in assay [5] and in assay [6] was more than 100 µM in each case. The TGI in assay [7], in assay [8], in assay [9], in assay [10], in [11] and in [12] was more than 100 µM in each case.

As for `COC(=O)c1c(O)ccc2c1c1c(n2Cc2cc(OC)cc(OC)c2)C(=O)c2ccccc2C1=O`, the TGI in assay [1] is more than 100 µM; in assay [2], 27 µM; in [3], 63.5 µM; in assay [13], 25 µM; in [4] it was 19.3 µM; in assay [5] it was more than 100 µM. For the same compound, the TGI in assay [6] was 20.9 µM; in assay [7], 73.3 µM; in assay [9], 24.2 µM; in [10] it was 41.1 µM; in [11], more than 100 µM; in assay [12], 37.5 µM.

On to `CN1CCC(C(O)(c2ccccc2)c2ccc(Br)cc2)CC1` (centres undefined), for which the TGI in assay [1] is 47.6 µM; in assay [2] it was more than 100 µM; in assay [3], 32.9 µM; in [13] it was more than 100 µM; in [4] it was more than 100 µM; in [6] it was 30.4 µM. The TGI is 61.3 µM in assay [7]; 30.1 µM in [8]; 44.3 µM in [9]; 98.7 µM in assay [10]; more than 100 µM in assay [11]; more than 100 µM in assay [12].

Turning to `COc1ccc(C2C3CCc4ccccc4C3=NN2S(=O)(=O)c2cccc(C(=O)O)c2OC)cc1` (centres undefined), the TGI is more than 100 µM in [1]; more than 100 µM in assay [2]; more than 100 µM in assay [3]; 68.6 µM in assay [13]; more than 100 µM in assay [4]; 14.2 µM in assay [6]. For the same compound, the TGI in assay [7] is more than 100 µM; in assay [8] it was more than 100 µM; in assay [9], more than 100 µM; in assay [10], more than 100 µM; in assay [11], more than 100 µM; in [12] it was 17.7 µM.
